According to patent US12331046B2, “CTPS1 inhibitors and uses thereof” (Nimbus Clotho, Inc., priority 2020, dated 2025):

Target: human CTPS1 (Homo sapiens (Human), UniProt P17812)
Assay: hCTPS1 biochemical assay (ADP-Glo)
Conditions: hCTPS1 25 nM, ATP 120 uM, UTP 160 uM, GTP 60 uM, L-Glutamine 100 uM, 25 degrees C

Chain of human CTPS1 (P17812 whole entry): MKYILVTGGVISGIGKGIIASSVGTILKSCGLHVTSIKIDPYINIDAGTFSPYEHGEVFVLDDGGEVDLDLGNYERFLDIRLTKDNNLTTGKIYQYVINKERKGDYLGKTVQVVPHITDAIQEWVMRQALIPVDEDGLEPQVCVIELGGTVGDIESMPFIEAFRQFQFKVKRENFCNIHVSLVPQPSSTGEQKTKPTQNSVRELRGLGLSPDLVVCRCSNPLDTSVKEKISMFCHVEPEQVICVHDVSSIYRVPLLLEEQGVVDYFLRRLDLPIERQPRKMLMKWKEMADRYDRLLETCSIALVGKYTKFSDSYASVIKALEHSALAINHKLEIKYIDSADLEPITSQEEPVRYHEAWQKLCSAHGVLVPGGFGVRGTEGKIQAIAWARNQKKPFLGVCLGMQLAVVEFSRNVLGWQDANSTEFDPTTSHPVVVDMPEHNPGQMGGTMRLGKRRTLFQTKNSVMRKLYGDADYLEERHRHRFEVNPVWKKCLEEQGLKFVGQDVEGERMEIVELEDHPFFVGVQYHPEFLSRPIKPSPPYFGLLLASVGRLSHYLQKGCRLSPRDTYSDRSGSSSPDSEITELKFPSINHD

In the case of `CCOc1cncc(-c2cnc(C(=O)NCc3cc(NS(=O)(=O)C4CC4)ccn3)s2)c1` [I-242, N-((4-(cyclopropanesulfonamido)pyridin-2-yl)methyl)-5-(5-ethoxypyridin-3-yl)thiazole-2-carboxamide], the IC50 is reported as < 100 nM.
`CCOc1cncc(-c2ccc(C(=O)NC3(c4cccc(NS(=O)(=O)C(F)F)c4)CC3)s2)n1` [I-269, N-(1-(3-((difluoromethyl)sulfonamido)phenyl)cyclopropyl)-5-(6-ethoxypyrazin-2-yl)thiophene-2-carboxamide] was tested, and the IC50 was < 100 nM.
`C[C@H]1Cc2nc(C(=O)NCc3cc(NS(=O)(=O)C4CC4)ccn3)cnc2N(C2CCC2)C1` [I-263, (S)-5-cyclobutyl-N-((4-(cyclopropanesulfonamido)pyridin-2-yl)methyl)-7-methyl-5,6,7,8-tetrahydropyrido[2,3-b]pyrazine-2-carboxamide] was tested, and the IC50 was ≥ 1000 nM.
In the case of `CCOc1cncc(-c2ccc(C(=O)NCc3nsc(NS(=O)(=O)C4CC4)n3)cc2)n1` [I-48, N-((5-(cyclopropanesulfonamido)-1,2,4-thiadiazol-3-yl)methyl)-4-(6-ethoxypyrazin-2-yl)benzamide], the IC50 is reported as < 100 nM.
`CCOc1cncc(-c2cnc(C(=O)N[C@@H](CN3CCOCC3)c3cccc(NS(=O)(=O)C(F)F)c3)s2)n1` [I-247, (R)—N-(1-(3-((difluoromethyl)sulfonamido)phenyl)-2-morpholinoethyl)-5-(6-ethoxypyrazin-2-yl)thiazole-2-carboxamide] was tested, and the IC50 was < 100 nM.
With `CCOc1cncc(-c2cnc(C(=O)N[C@H](c3cc(NS(=O)(=O)C4CC4)ccn3)[C@H]3C[C@H](N(C)C)C3)s2)n1` (single isomer, unassigned) [I-106] the IC50 was < 100 nM.
`CCOc1cncc(-c2ccc3c(c2)C(=O)N(Cc2cc(NS(=O)(=O)C4CC4)ccn2)C3=O)n1` [I-78, N-(2-[[5-(6-ethoxypyrazin-2-yl)-1,3-dioxoisoindol-2-yl]methyl]pyridin-4-yl) cyclopropane Sulfonamide] was tested, and the IC50 was 100 to 1000 nM.
For `O=C(NC1(c2csc(NS(=O)(=O)C3CC3)n2)CC1)c1ccc2ccncc2c1` [I-7, N-(1-(2-(cyclopropanesulfonamido)thiazol-4-yl)cyclopropyl)isoquinoline-7-carboxamide], the IC50 was ≥ 1000 nM.
`CCOc1cncc(-c2ccc(NC(=O)[C@](F)(CC)c3cc(NS(=O)(=O)C4CC4)ccn3)nc2)n1` [I-259, (S)-2-(4-(cyclopropanesulfonamido)pyridin-2-yl)-N-(5-(6-ethoxypyrazin-2-yl)pyridin-2-yl)-2-fluorobutanamide] was tested, and the IC50 was < 100 nM.
For `CCOc1cncc(-c2cnc(C(=O)N3CCC[C@@H]3c3cccc(NS(=O)(=O)C(F)F)c3)s2)n1` [I-70, N-[3-[(2R)-1-[5-(6-ethoxypyrazin-2-yl)-1,3-thiazole-2-carbonyl]pyrrolidin-2-yl]phenyl]-1,1-difluoromethanesulfonamide], the IC50 was < 100 nM.
For `CCOc1cncc(-c2cnc(C(=O)NC(CCN(C)C)c3c(F)ccc(NS(=O)(=O)C4CC4)c3F)s2)n1` (centres unmarked) [I-123, N-[1-(3-cyclopropanesulfonamido-2,6-difluorophenyl)-3-(dimethylamino)propyl]-5-(6-ethoxypyrazin-2-yl)-1,3-thiazole-2-carboxamide], the IC50 was ≥ 1000 nM.
For `CCOc1cncc(-c2ccc(C(=O)NCc3cccc(NS(=O)(=O)C(F)F)c3)cc2)n1` [I-49], the IC50 was < 100 nM.
Compound `Cc1cc2c(-c3cnc(C(=O)NCc4cc(NS(=O)(=O)C5CC5)ccn4)s3)cncn2n1` [I-185] has an IC50 of 100 to 1000 nM.
For `CCOc1cncc(-c2cnc(C(=O)N[C@@H](CCN(C)C)c3cccc(NS(=O)(=O)C4CC4)c3)s2)n1` (single isomer, unassigned) [I-144], the IC50 was < 100 nM.
In the case of `CCc1ccn2ncc(-c3cnc(C(=O)NCc4cc(NS(=O)(=O)C5CC5)ccn4)s3)cc12` [I-196, N-((4-(cyclopropanesulfonamido)pyridin-2-yl)methyl)-5-(5-ethylpyrrolo[1,2-b]pyridazin-3-yl)thiazole-2-carboxamide], the IC50 is reported as < 100 nM.
For `CCOc1cncc(-c2sc(C(=O)N[C@H](CC)c3cc(NS(=O)(=O)C4CC4)ccn3)nc2C)n1` [I-220, (R)—N-(1-(4-(cyclopropanesulfonamido)pyridin-2-yl)propyl)-5-(6-ethoxypyrazin-2-yl)-4-methylthiazole-2-carboxamide], the IC50 was < 100 nM.
For `CCOc1cncc(-c2cnc(C(=O)NCc3cc(NS(=O)(=O)C4CC4)ccn3)s2)n1` [I-50], the IC50 was < 100 nM.
For `CCOc1cncc(-c2cnc(C(=O)N3CCC[C@@H]3c3cccc(NS(=O)(=O)C4CC4)n3)s2)n1` [I-230, N-[6-[(2R)-1-[5-(6-ethoxypyrazin-2-yl)-1,3-thiazole-2-carbonyl]pyrrolidin-2-yl]pyridin-2-yl]cyclopropanesulfonamide], the IC50 was < 100 nM.
For `CCOc1cncc(-c2cnc(C(=O)N[C@@H](c3cc(NS(=O)(=O)C4CC4)ccn3)[C@H]3C[C@@H](N(C)C)C3)s2)n1` (single isomer, unassigned) [I-108], the IC50 was < 100 nM.
In the case of `CCOc1cncc(-c2cnc(C(=O)NC(CN3CCN(C)CC3)c3cc(NS(=O)(=O)C4CC4)ccn3)s2)n1` (centres unmarked) [I-207], the IC50 is reported as < 100 nM.
`CCOc1cncc(-c2cnc(C(=O)N[C@@H](CCCN(C)C)c3cc(NS(=O)(=O)C4CC4)ccn3)s2)n1` [I-155, (S)—N-(1-(4-(cyclopropanesulfonamido)pyridin-2-yl)-4-(dimethylamino)butyl)-5-(6-ethoxypyrazin-2-yl)thiazole-2-carboxamide] was tested, and the IC50 was < 100 nM.
`CCOc1cncc(-c2ccc(C(=O)NCc3nc(NS(=O)(=O)C4CC4)cs3)nc2)n1` [I-195, N-[(4-cyclopropanesulfonamido-1,3-thiazol-2-yl)methyl]-5-(6-ethoxypyrazin-2-yl)pyridine-2-carboxamide] gave an IC50 of 100 to 1000 nM.
In the case of `CCOc1cncc(-c2ccc(C(=O)NC3(c4cccc(NS(=O)(=O)C(F)F)c4)CC3)cc2)n1` [I-266, N-(1-(3-((difluoromethyl)sulfonamido)phenyl)cyclopropyl)-4-(6-ethoxypyrazin-2-yl)benzamide], the IC50 is reported as < 100 nM.
`CCOc1cncc(-c2ccc(C(=O)NCc3cnnc(NS(=O)(=O)C4CC4)c3)nc2)n1` [I-246, N-[(6-cyclopropanesulfonamidopyridazin-4-yl)methyl]-5-(6-ethoxypyrazin-2-yl)pyridine-2-carboxamide] was tested, and the IC50 was < 100 nM.
`CCC(NC(=O)c1ncc(-c2cnn3ccc(Cl)cc23)s1)c1cc(NS(=O)(=O)C2CC2)ccn1` (centres unmarked) [I-174] was tested, and the IC50 was < 100 nM.
In the case of `CCOc1cncc(-c2ncc(C(=O)NCc3cccc(NS(=O)(=O)C(F)F)c3)s2)n1` [I-62, N-[[3-(difluoromethanesulfonamido)phenyl]methyl]-2-(6-ethoxypyrazin-2-yl)-1,3-thiazole-5-carboxamide], the IC50 is reported as < 100 nM.
`CCOc1cncc(-c2cnc(C(=O)NC(CCCN)c3cc(NS(=O)(=O)C4CC4)ccn3)s2)n1` (centres unmarked) [I-166, N-(4-amino-1-(4-(cyclopropanesulfonamido)pyridin-2-yl)butyl)-5-(6-ethoxypyrazin-2-yl)thiazole-2-carboxamide] was tested, and the IC50 was < 100 nM.
For `CCOc1cncc(-c2cnc(C(=O)N[C@H](C)c3cccc(NS(=O)(=O)C(F)F)c3)s2)n1` [I-272, N-[(1R)-1-[3-(difluoromethanesulfonamido)phenyl]ethyl]-5-(6-ethoxypyrazin-2-yl)-1,3-thiazole-2-carboxamide], the IC50 was < 100 nM.
`CCOc1cncc(-c2ccc(C(=O)NCc3cccc(NS(=O)(=O)C(F)(F)F)c3)nc2)n1` [I-53, 5-(6-ethoxypyrazin-2-yl)-N-[[3-(trifluoromethanesulfonamido)phenyl]methyl] pyridine-2-carboxamide] was tested, and the IC50 was < 100 nM.
In the case of `CCOc1cncc(-c2sc(C(=O)NC(CC)c3cc(NS(=O)(=O)C4CC4)ccn3)nc2C)n1` (centres unmarked) [I-227], the IC50 is reported as < 100 nM.
In the case of `CCOc1cncc(-c2nnc(C(=O)NCc3cc(NS(=O)(=O)C4CC4)ccn3)o2)n1` [I-57], the IC50 is reported as ≥ 1000 nM.
With `CCOc1cncc(-c2cnc(C(=O)N3CCNCC3c3ccnc(NS(=O)(=O)C4CC4)n3)s2)n1` (centres unmarked) [I-181, N-(4-{1-[5-(6-ethoxypyrazin-2-yl)-1,3-thiazole-2-carbonyl]piperazin-2-yl}pyrimidin-2-yl)cyclopropanesulfonamide] the IC50 was 100 to 1000 nM.
For `CCOc1cncc(-c2ccc(C(=O)N3CCC[C@@H]3c3cc(NS(=O)(=O)C4CC4)ccn3)nc2)n1` [I-80, N-[2-[(2R)-1-[5-(6-ethoxypyrazin-2-yl)pyridine-2-carbonyl]pyrrolidin-2-yl]pyridin-4-yl]cyclopropanesulfonamide], the IC50 was ≥ 1000 nM.
With `CCOc1cncc(-c2cnc(C(=O)N[C@@H](CN3C[C@@H]4C[C@H]3CO4)c3cc(NS(=O)(=O)C4CC4)ccn3)s2)n1` (single isomer, unassigned) [I-102] the IC50 was < 100 nM.
With `O=C(NC1(c2csc(NS(=O)(=O)C3CC3)n2)CC1)c1cc2ccccc2cn1` [I-3, N-(1-(2-(cyclopropanesulfonamido)thiazol-4-yl)cyclopropyl)isoquinoline-3-carboxamide] the IC50 was ≥ 1000 nM.
`CCOc1cncc(-c2ccc(C(=O)NC3(c4cccc5c4ccn5S(=O)(=O)C4CC4)CC3)nc2)n1` [I-20, N-(1-(1-(cyclopropylsulfonyl)-1H-indol-4-yl)cyclopropyl)-5-(6-ethoxypyrazin-2-yl)picolinamide] was tested, and the IC50 was ≥ 1000 nM.
With `CCOc1cncc(-c2ccc(C(=O)NCc3cc(NS(=O)(=O)C4CC4)ncn3)nc2)n1` [I-22, N-[(6-cyclopropanesulfonamidopyrimidin-4-yl)methyl]-5-(6-ethoxypyrazin-2-yl) pyridine-2-carboxamide] the IC50 was < 100 nM.
With `O=C(NCc1cc(NS(=O)(=O)C2CC2)ccn1)c1ncc(-c2cncc(Cl)c2)s1` [I-252] the IC50 was < 100 nM.
`CCOc1cncc(-n2cnc(C(=O)NC3(c4cccc(NS(=O)(=O)C(F)F)c4)CC3)c2)n1` [I-283, N-[1-[3-(difluoromethanesulfonamido)phenyl]cyclopropyl]-1-(6-ethoxypyrazin-2-yl)imidazole-4-carboxamide] was tested, and the IC50 was < 100 nM.
In the case of `CCOc1cncc(-c2ccc(NC(=O)Cc3cc(NS(=O)(=O)C4CC4)ccn3)c(F)c2)n1` [I-39], the IC50 is reported as < 100 nM.
Work on `CCOc1cncc(-c2cnc(C(=O)N3CCNC[C@H]3c3ccnc(NS(=O)(=O)C4CC4)n3)s2)n1` [I-168, (S)—N-(4-(1-(5-(6-ethoxypyrazin-2-yl)thiazole-2-carbonyl)piperazin-2-yl)pyrimidin-2-yl)cyclopropanesulfonamide] yielded an IC50 of 100 to 1000 nM.
